In assay [1] the test system is primary human mesenchymal stem cells (hMSCs). Nature of the assay: Tenocyte differentiation screening in hMSCs (SCXA-positive cells, 4 days). The assay is classed as cell-based. The note with it: 96 h, fold change over DMSO. From the text: Representative compounds were screened using primary human mesenchymal stem cells (hMSCs) to determine their ability to induce tenocyte differentiation (process by which tendon is developed).
Primary human mesenchymal stem cells (hMSCs) were purchased from Lonza (Walkersville, Md.) and expanded in Mesenchymal Stem Cell Growth Media (Lonza). Cells between passage 3 and 6 were used for the experiments.
Cells were fixed using 4% formaldehyde (Electron Microscopy Sciences), and stained with anti-Sclerasis (anti-SCXA) antibodies (Abgent, San Diego, Calif.) [Webb S., et. al., Retinoic acid receptor signaling preserves tendon stem cell characteristics and prevents spontaneous differentiation in vitro, Stem Cell Research & Therapy 2016, 7:45] overnight at 4° C. […] Number of cells positive for SCXA in each well was quantified using the Celllnsight CX5. Data was normalized to the average of 12 DMSO treated wells on the same plate using Dotmatics Studies module. The normalized averages (fold change over DMSO) of 3 replicate wells for each compound concentration were calculated. Due to solubility limitations of some of the compounds, values for higher doses were manually corrected and curve fitting and EC50 determinations were performed using Dotmatics Studies.
EC50 for each compound is reported.

Assay [2] has as its system Wnt-responsive promoter driving firefly luciferase in SW480 cells. The assay is described as follows: Wnt reporter (SP5 promoter-luciferase) screening assay in SW480 cells. The note with it: Homo sapiens, 24-40 h, top concentration ten micromolar. The assay is classed as cell-based. From the text: Another screening assay for Wnt activity is described as follows. Reporter cell lines can be generated by stably transducing cells of cancer cell lines (e.g., colon cancer) with a lentiviral construct that include a Wnt-responsive promoter driving expression of the firefly luciferase gene.
Lentiviral constructs can be made in which the SP5 promoter, a promoter having eight TCF/LEF binding sites derived from the SP5 promoter, is linked upstream of the firefly luciferase gene. The lentiviral constructs can also include a hygromycin resistance gene as a selectable marker. The SP5 promoter construct can be used to transduce SW480 cells, a colon cancer cell line having a mutated APC gene that generates a truncated APC protein, leading to de-regulated accumulation of β-catenin.
Cultured SW480 cells bearing a reporter construct can be distributed at approximately 10,000 cells per well into 96 well or 384 well plates. Compounds from a small molecule compound library can then be added to the wells in half-log dilutions using a ten micromolar top concentration. A series of control wells for each cell type receive only buffer and compound solvent. Twenty-four to forty hours after the addition of compound, reporter activity for luciferase can be assayed, for example, by addition of the BrightGlo luminescence reagent (Promega) and the Victor3 plate reader (Perkin Elmer). Readings can be normalized to DMSO only treated cells, and normalized activities can then be used in the EC50 calculations.

Structures are written as SMILES. A value given as a limit tells only on which side of the number the result lay.

For `CN1CCC(NC(=O)c2n[nH]c3ccc(-c4cncc(CN5CCCCC5)c4)cc23)CC1` [compound 87, N-(1-Methylpiperidin-4-yl)-5-(5-(piperidin-1-ylmethyl)pyridin-3-yl)-1H-indazole-3-carboxamide], the EC50 – broadly, the concentration needed to bring the measured effect to its halfway point – in assay [1] was determined as 1580 nM; in assay [2] it was 2440 nM.

As to `O=C(Nc1ccc(-c2cccc(F)c2)nc1)c1n[nH]c2ccc(-c3cncc(CN4CCCCC4)c3)cc12` [compound 72, N-(6-(3-Fluorophenyl)pyridin-3-yl)-5-(5-(piperidin-1-ylmethyl)pyridin-3-yl)-1H-indazole-3-carboxamide], the EC50 in assay [1] was more than 100000 nM; in assay [2], 215 nM.

As for `CN(C)C(=O)Nc1cncc(-c2ccc3[nH]nc(C(=O)Nc4cccnc4)c3c2)c1` [compound 1, 5-(5-(3,3-dimethylureido)pyridin-3-yl)-N-(pyridin-3-yl)-1H-indazole-3-carboxamide], the EC50 is more than 100000 nM in assay [1] and 175 nM in assay [2].

For `CN1CCN(c2ccc(NC(=O)c3n[nH]c4ccc(-c5cccnc5)cc34)cn2)CC1` [compound 12, N-(6-(4-Methylpiperazin-1-yl)pyridin-3-yl)-5-(pyridin-3-yl)-1H-indazole-3-carboxamide], the values for the EC50 in assay [1] and in assay [2] were 5000 nM and 63 nM, respectively.

For the compound `O=C(Nc1cccnc1)c1n[nH]c2ccc(-c3cncc(N4CCCC4)c3)cc12` [compound 189, N-(Pyridin-3-yl)-5-(5-(pyrrolidin-1-yl)pyridin-3-yl)-1H-indazole-3-carboxamide], the EC50 is more than 100000 nM in assay [1] and 85 nM in assay [2].

Take `CN1CCN(c2cncc(-c3ccc4[nH]nc(C(=O)Nc5ccc(N6CCCC6)nc5)c4c3)c2)CC1` [compound 186, 5-(5-(4-Methylpiperazin-1-yl)pyridin-3-yl)-N-(6-(pyrrolidin-1-yl)pyridin-3-yl)-1H-indazole-3-carboxamide]: the results for the EC50 in assay [1] and in assay [2] were more than 100000 nM and 460 nM, respectively.

With `O=C(Nc1cccnc1)c1n[nH]c2ccc(-c3cncc(Oc4ccccc4)c3)cc12` [compound 56, 5-(5-Phenoxypyridin-3-yl)-N-(pyridin-3-yl)-1H-indazole-3-carboxamide], the EC50 in assay [1] was determined as 625 nM; in assay [2], 160 nM.

Regarding `O=C(Nc1ccc(Oc2ccccc2F)nc1)c1n[nH]c2ccc(-c3cccnc3)cc12` [compound 18, N-(6-(2-fluorophenoxy)pyridin-3-yl)-5-(pyridin-3-yl)-1H-indazole-3-carboxamide], the EC50 in assay [1] was 5380 nM; in assay [2], 122 nM.

Regarding `O=C(Nc1ccc(C(F)(F)F)nc1)c1n[nH]c2ccc(-c3cccnc3)cc12` [compound 3, 5-(Pyridin-3-yl)-N-(6-(trifluoromethyl)pyridin-3-yl)-1H-indazole-3-carboxamide], the EC50 in assay [1] is more than 100000 nM; in assay [2] it was 200 nM.

On to `O=C(Nc1ccc(-c2ccccc2)nc1)c1n[nH]c2ccc(-c3cncc(CN4CCCCC4)c3)cc12` [compound 65, N-(6-Phenylpyridin-3-yl)-5-(5-(piperidin-1-ylmethyl)pyridin-3-yl)-1H-indazole-3-carboxamide], for which the EC50 in assay [1] is more than 100000 nM; in assay [2] it was 101 nM.

Take `CCOc1ccc(NC(=O)c2n[nH]c3ccc(-c4cncc(CN5CCCCC5)c4)cc23)cn1` [compound 45, N-(6-Ethoxypyridin-3-yl)-5-(5-(piperidin-1-ylmethyl)pyridin-3-yl)-1H-indazole-3-carboxamide]: the values for the EC50 in assay [1] and in assay [2] were 9750 nM and 110 nM, respectively.

Consider `O=C(Nc1ccc(C(=O)N2CCCC2)nc1)c1n[nH]c2ccc(-c3cncc(CN4CCCCC4)c3)cc12` [compound 179, 5-(5-(Piperidin-1-ylmethyl)pyridin-3-yl)-N-(6-(pyrrolidine-1-carbonyl)pyridin-3-yl)-1H-indazole-3-carboxamide], for which the results for the EC50 in assay [1] and in assay [2] were 1120 nM and 30 nM, respectively.

Take `CN1CCN(c2ccc(NC(=O)c3n[nH]c4ccc(-c5cncc(NC(=O)C6CC6)c5)cc34)cn2)CC1` [compound 38, 5-(5-(Cyclopropanecarboxamido)pyridin-3-yl)-N-(6-(4-methylpiperazin-1-yl)pyridin-3-yl)-1H-indazole-3-carboxamide]: the EC50 in assay [1] turned out to be 2840 nM; in assay [2] it was 120 nM.

Turning to `CN1CCN(Cc2cc(F)cc(-c3ccc4[nH]nc(C(=O)Nc5cnccc5C(F)(F)F)c4c3)c2)CC1` [compound 60, 5-(3-Fluoro-5-((4-methylpiperazin-1-yl)methyl)phenyl)-N-(4-(trifluoromethyl)pyridin-3-yl)-1H-indazole-3-carboxamide], the EC50 was more than 100000 nM in assay [1] and not below 10000 nM in assay [2].

Take `O=C(Nc1ccc(Oc2ccc(F)cc2)nc1)c1n[nH]c2ccc(-c3cccnc3)cc12` [compound 20, N-(6-(4-Fluorophenoxy)pyridin-3-yl)-5-(pyridin-3-yl)-1H-indazole-3-carboxamide]: the EC50 in assay [1] worked out at 12000 nM; in assay [2], 118 nM.

Take `O=C(Nc1cccnc1)c1n[nH]c2ccc(-c3cncc(NC(=O)N4CCOCC4)c3)cc12` [compound 32, N-(5-(3-(Pyridin-3-ylcarbamoyl)-1H-indazol-5-yl)pyridin-3-yl) morpholine-4-carboxamide]: the values for the 50% effective concentration (EC50) in assay [1] and in assay [2] were more than 100000 nM and 1250 nM, respectively.

For the compound `Nc1cncc(-c2ccc3[nH]nc(C(=O)Nc4ccc(N5CCCCC5)nc4)c3c2)c1` [compound 182, 5-(5-Aminopyridin-3-yl)-N-(6-(piperidin-1-yl)pyridin-3-yl)-1H-indazole-3-carboxamide], the values for the EC50 in assay [1] and in assay [2] were 8040 nM and 35 nM, respectively.

Regarding `O=C(Nc1cnccc1C(F)(F)F)c1n[nH]c2ccc(-c3cccnc3)cc12` [compound 48, 5-(Pyridin-3-yl)-N-(4-(trifluoromethyl)pyridin-3-yl)-1H-indazole-3-carboxamide], the EC50 was more than 100000 nM in assay [1] and not below 10000 nM in assay [2].

For `O=C(Nc1ccc(Oc2cccc(F)c2)nc1)c1n[nH]c2ccc(-c3cccnc3)cc12` [compound 19, N-(6-(3-Fluorophenoxy)pyridin-3-yl)-5-(pyridin-3-yl)-1H-indazole-3-carboxamide], the figures for the EC50 in assay [1] and in assay [2] were more than 100000 nM and 107 nM, respectively.

For the compound `O=C(Nc1cccnc1)c1n[nH]c2ccc(-c3cccnc3)cc12` [compound 4, N,5-di(pyridin-3-yl)-1H-indazole-3-carboxamide], the EC50 was 4550 nM in assay [1] and 160 nM in assay [2].

Turning to `O=C(Nc1ccc2c(c1)OCO2)c1n[nH]c2ccc(-c3cncc(CN4CCCCC4)c3)cc12` [compound 78, N-(Benzo[d][1,3]dioxol-5-yl)-5-(5-(piperidin-1-ylmethyl)pyridin-3-yl)-1H-indazole-3-carboxamide], the EC50 in assay [1] was more than 100000 nM; in assay [2] it was 239 nM.

Regarding `O=C(Nc1cnccn1)c1n[nH]c2ccc(-c3cncc(CN4CCCCC4)c3)cc12` [compound 81, 5-(5-(Piperidin-1-ylmethyl)pyridin-3-yl)-N-(pyrazin-2-yl)-1H-indazole-3-carboxamide], the EC50 in assay [1] is more than 100000 nM; in assay [2], 77 to 142 nM.

With `O=C(Nc1cccnc1)c1n[nH]c2ccc(-c3cncc(Cc4ccccc4)c3)cc12` [compound 55, 5-(5-Benzylpyridin-3-yl)-N-(pyridin-3-yl)-1H-indazole-3-carboxamide], the EC50 is more than 100000 nM in assay [1] and 44 nM in assay [2].

Take `CN1CCN(C(=O)c2n[nH]c3ccc(-c4cncc(CN5CCCCC5)c4)cc23)CC1` [compound 83, (4-Methylpiperazin-1-yl)(5-(5-(piperidin-1-ylmethyl)pyridin-3-yl)-1H-indazol-3-yl)methanone]: the EC50 was more than 100000 nM in assay [1] and 2500 to 3400 nM in assay [2].

Consider `O=C(Nc1ccc(N2CCCC2)nc1)c1n[nH]c2ccc(-c3cncc(N4CCOCC4)c3)cc12` [compound 187, 5-(5-Morpholinopyridin-3-yl)-N-(6-(pyrrolidin-1-yl)pyridin-3-yl)-1H-indazole-3-carboxamide], for which the figures for the EC50 in assay [1] and in assay [2] were more than 100000 nM and 215 nM, respectively.

On to `N#Cc1ccc(NC(=O)c2n[nH]c3ccc(-c4cncc(CN5CCCC5)c4)cc23)cn1` [compound 52, N-(6-Cyanopyridin-3-yl)-5-(5-(pyrrolidin-1-ylmethyl)pyridin-3-yl)-1H-indazole-3-carboxamide], for which the figures for the EC50 in assay [1] and in assay [2] were more than 100000 nM and 57 nM, respectively.

`CN1CCN(c2ncccc2NC(=O)c2n[nH]c3ccc(-c4cccnc4)cc23)CC1` [compound 11, N-(2-(4-Methylpiperazin-1-yl)pyridin-3-yl)-5-(pyridin-3-yl)-1H-indazole-3-carboxamide]: the EC50 in assay [1] is more than 100000 nM; in assay [2], not below 10000 nM.

Source of the values: patent US10806726B2, “Methods of using indazole-3-carb oxamides and their use as Wnt/B-catenin signaling pathway inhibitors” (Samumed, LLC, priority 2016, dated 2020).
